Source: patent US5173502A, “Substituted trifluoropropan-1-yl-imidazole alpha 2-receptor anagonists” (Adir et Compagnie, priority 1990, dated 1992)

Legend:
α1 = test: In vivo test: return of the eye to a normal position (xylazine-induced exophthalmia) in rats, α1-antagonist potential; parameters: species or system rat
Experimental: (§1) In vivo α2 -antagonism test
(§2) The α2 -antagonist properties of the compounds of the invention were determined according to a method described by F. Colpaert et al., (DRUG Development Research 7, 125-140, 1986) by measuring the effects produced by those compounds on the loss of the correcting reflex and exophthalmia induced in rats by xylazine, a known agonist of α2-adrenergic receptors in the central nervous system.
(§3) The reestablishment of the righting reflex measures the α2 -antagonist potential of the compounds, whilst the return of the eye to a normal position measures the α1 -antagonist potential.

α2-adrenergic receptors = test: In vivo α2-antagonism test: reestablishment of the righting reflex lost through xylazine in rats; parameters: species or system rat; conditions: xylazine-induced loss of righting reflex
Experimental: as §1, §2, §3

`Cl.FC(F)(F)C(Cc1c[nH]cn1)c1ccccc1` (centres unmarked) [Example 2, 4-(2-Phenyl-3,3,3-trifluoropropan-1-yl)-imidazole hydrochloride] was tested, and the “ED50 (α1)” value (α1) was “higher than 10 mg/kg” and the “ED50 (α2)” value (α2-adrenergic receptors) was 5 mg/kg.
